# ChEMBL document CHEMBL1201862, “PubChem BioAssay data set” (2004)
#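 Dose response: 5 concentrations. Exposure: 48 h. Format: 96-well plates. Endpoint: linear interpolation; highest concentration if not reached. At the GI50, growth is halved.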 Activity calls are given as the source filed them. Rule as the data show it: active = GI50 up to about 1.1 µM and inactive = higher.
# How the values were obtained:
# Assay in all cases: NCI-60 cell line screen, 48 h
# OVCAR-5 = test system: OVCAR-5
# NCI-H23 = test system: NCI-H23
# SNB-78 = test system: SNB-78
# HOP-62 = test system: HOP-62
# COLO 205 = test system: COLO 205
# 786-0 = test system: 786-0
# DMS-114 = test system: DMS-114
# OVCAR-3 = test system: OVCAR-3
# UACC-62 = test system: UACC-62
# A549 = test system: A549
# RPMI-8226 = test system: RPMI-8226
# SF-539 = test system: SF-539
# LXFL 529 = test system: LXFL 529
# CCRF-CEM = test system: CCRF-CEM
# HT-29 = test system: HT-29
# HOP-92 = test system: HOP-92
# NCI-H522 = test system: NCI-H522
# XF498 = test system: XF498
# SW-620 = test system: SW-620
# UO-31 = test system: UO-31
# Malme-3M = test system: Malme-3M
# KM12 = test system: KM12
# MOLT-4 = test system: MOLT-4
# A498 = test system: A498
# SF-268 = test system: SF-268
# LOX IMVI = test system: LOX IMVI
# KM-20L2 = test system: KM-20L2
# SK-OV-3 = test system: SK-OV-3
# HCC 2998 = test system: HCC 2998
# HCT-15 = test system: HCT-15
# SNB-75 = test system: SNB-75
# EKVX = test system: EKVX
# HCT-116 = test system: HCT-116
# U-251 = test system: U-251
# HOP-18 = test system: HOP-18
# ACHN = test system: ACHN
# DLD-1 = test system: DLD-1
# RXF 393 = test system: RXF 393
# TK-10 = test system: TK-10
# M14 = test system: M14
# IGROV-1 = test system: IGROV-1
# SK-MEL-2 = test system: SK-MEL-2
# SK-MEL-28 = test system: SK-MEL-28
# SK-MEL-5 = test system: SK-MEL-5
# CAKI-1 = test system: CAKI-1
# NCI-H460 = test system: NCI-H460
# OVCAR-4 = test system: OVCAR-4
# M19-MEL = test system: M19-MEL
# SN12C = test system: SN12C
# SNB-19 = test system: SNB-19
# K562 = test system: K562
# UACC-257 = test system: UACC-257
# OVCAR-8 = test system: OVCAR-8
# DMS-273 = test system: DMS-273
# NCI/ADR-RES = test system: NCI/ADR-RES
# DU-145 = test system: DU-145
# BT-549 = test system: BT-549
# SR = test system: SR
# Hs-578T = test system: Hs-578T
# SF-295 = test system: SF-295
# MCF7 = test system: MCF7
# MDA-MB-231 = test system: MDA-MB-231
# NCI-H226 = test system: NCI-H226
# T47D = test system: T47D
# MDA-MB-435 = test system: MDA-MB-435
# PC-3 = test system: PC-3
# HL-60 = test system: HL-60
smiles,measurement,setting,value
CCCNC(=O)C1C(=O)C(=O)N(CCC)C1=O (configuration not stated),GI50,OVCAR-5,56.9 µM (inactive)
same,GI50,NCI-H23,> 100 µM (inactive)
same,GI50,SNB-78,> 100 µM (inactive)
same,GI50,HOP-62,> 100 µM (inactive)
same,GI50,COLO 205,> 100 µM (inactive)
same,GI50,786-0,> 100 µM (inactive)
same,GI50,DMS-114,> 100 µM (inactive)
same,GI50,OVCAR-3,> 100 µM (inactive)
same,GI50,UACC-62,> 100 µM (inactive)
same,GI50,A549,> 100 µM (inactive)
same,GI50,RPMI-8226,> 100 µM (inactive)
same,GI50,SF-539,> 100 µM (inactive)
same,GI50,LXFL 529,> 100 µM (inactive)
same,GI50,CCRF-CEM,> 100 µM (inactive)
same,GI50,HT-29,> 100 µM (inactive)
same,GI50,HOP-92,> 100 µM (inactive)
same,GI50,NCI-H522,> 100 µM (inactive)
same,GI50,XF498,> 100 µM (inactive)
same,GI50,SW-620,> 100 µM (inactive)
same,GI50,UO-31,> 100 µM (inactive)
same,GI50,Malme-3M,> 100 µM (inactive)
same,GI50,KM12,> 100 µM (inactive)
same,GI50,MOLT-4,> 100 µM (inactive)
same,GI50,A498,> 100 µM (inactive)
same,GI50,SF-268,> 100 µM (inactive)
same,GI50,LOX IMVI,> 100 µM (inactive)
same,GI50,KM-20L2,> 100 µM (inactive)
same,GI50,SK-OV-3,> 100 µM (inactive)
same,GI50,HCC 2998,> 100 µM (inactive)
same,GI50,HCT-15,> 100000 nM
same,GI50,SNB-75,> 100 µM (inactive)
same,GI50,EKVX,> 100 µM (inactive)
same,GI50,HCT-116,> 100 µM (inactive)
same,GI50,U-251,> 100 µM (inactive)
same,GI50,HOP-18,> 100 µM (inactive)
same,GI50,ACHN,> 100 µM (inactive)
same,GI50,DLD-1,> 100 µM (inactive)
same,GI50,RXF 393,> 100 µM (inactive)
same,GI50,TK-10,> 100 µM (inactive)
same,GI50,M14,> 100 µM (inactive)
same,GI50,IGROV-1,> 100 µM (inactive)
same,GI50,SK-MEL-2,> 100 µM (inactive)
same,GI50,SK-MEL-28,> 100 µM (inactive)
same,GI50,SK-MEL-5,> 100 µM (inactive)
same,GI50,CAKI-1,> 100 µM (inactive)
same,GI50,NCI-H460,> 100 µM (inactive)
same,GI50,OVCAR-4,> 100 µM (inactive)
same,GI50,M19-MEL,> 100 µM (inactive)
same,GI50,SN12C,> 100 µM (inactive)
same,GI50,SNB-19,> 100 µM (inactive)
same,GI50,K562,> 100 µM (inactive)
same,GI50,UACC-257,> 100 µM (inactive)
same,GI50,OVCAR-8,> 100 µM (inactive)
same,GI50,DMS-273,> 100 µM (inactive)
C/C(=N\NC(=S)N1CCN(C2CCCCCC2)CC1)c1ccccn1,GI50,NCI/ADR-RES,10 nM (active)
same,GI50,DU-145,1.02 µM (active)
same,GI50,NCI-H23,0.01 µM (active)
same,GI50,BT-549,1.27 µM (inactive)
same,GI50,SNB-78,2.78 µM (inactive)
same,GI50,COLO 205,0.01 µM (active)
same,GI50,DMS-114,0.01 µM (active)
same,GI50,SR,10 nM (active)
same,GI50,OVCAR-3,0.01 µM (active)
same,GI50,UACC-62,< 0.012 µM (active)
same,GI50,A549,< 0.0379 µM (active)
same,GI50,RPMI-8226,0.01 µM (active)
same,GI50,SF-539,0.0927 µM (active)
same,GI50,LXFL 529,0.001 µM (active)
same,GI50,CCRF-CEM,0.01 µM (active)
same,GI50,HT-29,< 0.0343 µM (active)
same,GI50,HOP-92,0.0473 µM (active)
same,GI50,NCI-H522,< 0.0253 µM (active)
same,GI50,SW-620,0.01 µM (active)
same,GI50,Hs-578T,1.49 µM (inactive)
same,GI50,UO-31,0.1 µM (active)
same,GI50,Malme-3M,0.105 µM (active)
same,GI50,SF-295,< 47.6 nM (active)
same,GI50,KM12,0.0197 µM (active)
same,GI50,MOLT-4,0.01 µM (active)
same,GI50,A498,1.49 µM (inactive)
same,GI50,SF-268,0.337 µM (active)
same,GI50,LOX IMVI,0.01 µM (active)
same,GI50,KM-20L2,0.01 µM (active)
same,GI50,SK-OV-3,0.0565 µM (active)
same,GI50,HCC 2998,< 0.0485 µM (active)
same,GI50,HCT-15,10 nM
same,GI50,MCF7,10 nM (active)
same,GI50,MDA-MB-231,1.31 µM (inactive)
same,GI50,NCI-H226,65.5 nM (active)
same,GI50,SNB-75,1.71 µM (inactive)
same,GI50,EKVX,< 0.0121 µM (active)
same,GI50,HCT-116,0.01 µM (active)
same,GI50,U-251,< 0.0117 µM (active)
same,GI50,HOP-18,2.06 µM (inactive)
same,GI50,ACHN,0.145 µM (active)
same,GI50,DLD-1,0.01 µM (active)
same,GI50,RXF 393,0.212 µM (active)
same,GI50,TK-10,0.74 µM (active)
same,GI50,M14,0.01 µM (active)
same,GI50,IGROV-1,0.01 µM (active)
same,GI50,SK-MEL-2,0.481 µM (active)
same,GI50,T47D,10 nM (active)
same,GI50,SK-MEL-28,0.238 µM (active)
same,GI50,SK-MEL-5,0.0249 µM (active)
same,GI50,CAKI-1,0.037 µM (active)
same,GI50,NCI-H460,0.01 µM (active)
same,GI50,MDA-MB-435,161 nM (active)
same,GI50,OVCAR-4,0.041 µM (active)
same,GI50,PC-3,10 nM (active)
same,GI50,HL-60,10 nM (active)
same,GI50,M19-MEL,0.34 µM (active)
same,GI50,SN12C,0.111 µM (active)
same,GI50,SNB-19,1.71 µM (inactive)
same,GI50,K562,0.01 µM (active)
same,GI50,UACC-257,0.01 µM (active)
same,GI50,OVCAR-8,0.01 µM (active)
same,GI50,DMS-273,0.01 µM (active)
